Patent publication US20180153995A1, “USE OF ANTIMICROBIAL POLYMERS FOR RE-SENSITIZATION OF MICROORGANISMS UPON EMERGENCE OF RESISTANCE TO ANTI-MICROBIAL AGENTS” (Technion Research & Development Foundation Limited, priority 2008, published 2018)
Like-named read-outs stand apart in the source and are kept apart here.

Legend:
[1] = tested on: S. aureus 17314; test: Antibiotic MIC by microdilution with or without sub-MIC polymer; format: cell-based, Staphylococcus aureus
[2] = tested on: P. mirabilis 1285; format: cell-based, Proteus mirabilis
[3] = tested on: P. aeruginosa 8732; test: Antibiotic MIC by microdilution with or without sub-MIC polymer; format: cell-based, Pseudomonas aeruginosa; settings: P. aeruginosa 8732; no polymer (None), Table 10
Description: (§1) MICs were determined by microdilution susceptibility testing in 96-well plates (by Nunc) using inocula of 10^5 bacteria per ml. Cell populations were evaluated by optical density measurements at 620 nm and were calibrated against a set of standards. Hundred (100) μl of a bacterial suspension were added to 100 μl of culture medium (control) or to 100 μl of culture medium containing various polymer concentrations in 2-fold serial dilutions. Inhibition of proliferation was determined by optical density measurements at 620 nm after an incubation period of 24 hours at 37° C.
Inhibition of proliferation was determined by optical density measurements at 620 nm after an incubation period of 24 hours at 37° C.

[4] = tested on: E. coli 14182; test: as above; format: cell-based, Escherichia coli
[5] = tested on: MRSA 15852; format: cell-based, Staphylococcus aureus; settings: S. aureus 15852
Description: The fractionary inhibitory (FIC) concentration index for combinations of two antimicrobial agents was calculated as follows: FIC index=FICA+FICB=A/MICA+B/MICB where A and B are the MIC values of agent A and agent B in the combination, MICA and MICB are the MICs of agent A and agent B alone, and FICA and FICB are the FICs of agent A and agent B.
The FIC indexes were interpreted as follows: less than 0.5 indicates a clear re-sensitizing effect; from 0.5 to 4 indicates a marginal or null re-sensitizing effect; and over 4 indicates antagonism.

[6] = tested on: P. mirabilis 1285; format: cell-based, Proteus mirabilis; settings: no polymer (None), Table 12
Description: as §1
(§2) 100 μl of a bacterial suspension were added to 100 μl of culture medium (control) or to 100 μl of culture medium containing various antibiotic and C14(9-ene)KKNC12KNH2 (SEQ ID NO: 5) concentrations in 2-fold serial dilutions. Inhibition of proliferation was determined by optical density measurements at 620 nm after an incubation period of 24 hours at 37° C.

[7] = tested on: S. aureus 43300; test: Antibiotic MIC by microdilution with or without sub-MIC polymer; format: cell-based, Staphylococcus aureus
Description: as §1
Table 8 below presents the MIC values of antibiotics in presence or absence of C12(5-ene)KKNC12KNH2 (SEQ ID NO: 2) at sub-MIC levels of the polymer, as measured for the S. aureus strains 43300 (ATCC), 15819 (clinical isolate), 15877 (clinical isolate) and 15852 (clinical isolate). MICs were determined by microdilution susceptibility testing in 96-well plates (Nunc) using inocula of 10^5 bacteria per ml. One hundred (100) μl of a bacterial suspension were added to 100 μl of culture medium (control) or to 100 μl of culture medium containing various antibiotic and C12(5-ene)KKNC12KNH2 (SEQ ID NO: 2) concentrations in 2-fold serial dilutions. Inhibition of proliferation was determined by optical density measurements at 620 nm after an incubation period of 24 hours at 37° C.
as §2

[8] = +½ MIC (3.12 μM) C12(5-ene)KKNC12KNH2

O=C(O)c1cn(C2CC2)c2cc(N3CCNCC3)c(F)cc2c1=O [Ciprofloxacin, ciprofloxacin]
Antibiotic MIC [1]: 128 µg/mL | Antibiotic MIC ([1]; S. aureus 17314, +¼ MIC (1.6 μM) C12K(KNC12K)2NH2): 128 µg/mL | Antibiotic MIC ([1]; S. aureus 17314, +¼ MIC (1.6 μM) C14(9-ene)KKNC12KNH2): 64 µg/mL | Antibiotic MIC ([1]; S. aureus 17314, +¼ MIC (1.6 μM) C16(9-ene)KKNC12KNH2): 32 µg/mL | Antibiotic MIC ([1]; S. aureus 17314, +½ MIC (3.12 μM) C12K(KNC12K)2NH2): 64 µg/mL | Antibiotic MIC ([1]; S. aureus 17314, +½ MIC (3.12 μM) C12KKNC12KNH2): 64 µg/mL | Antibiotic MIC ([1]; S. aureus 17314, +½ MIC (3.12 μM) C14(9-ene)KKNC12KNH2): 64 µg/mL | Antibiotic MIC ([1]; S. aureus 17314, +½ MIC (3.12 μM) C16(9-ene)KKNC12KNH2): 16 µg/mL | Antibiotic MIC ([1]; S. aureus 17314, +⅓ MIC (2.1 μM) C12K(KNC12K)2NH2): 64 µg/mL | Antibiotic MIC ([1]; S. aureus 17314, +⅓ MIC (2.1 μM) C12KKNC12KNH2): 64 µg/mL | Antibiotic MIC ([1]; S. aureus 17314, +⅓ MIC (2.1 μM) C14(9-ene)KKNC12KNH2): 64 µg/mL | Antibiotic MIC ([1]; S. aureus 17314, +⅓ MIC (2.1 μM) C16(9-ene)KKNC12KNH2): 32 µg/mL | Antibiotic MIC ([1]; S. aureus 17314, no polymer (None), Table 9): 64 µg/mL | Antibiotic MIC ([1]; S. aureus 17314, no polymer (None), Table 10): 64 µg/mL | Antibiotic MIC ([1]; S. aureus 17314, no polymer (None), Table 11): 128 µg/mL | Antibiotic MIC ([1]; S. aureus 17314, no polymer (None), Table 12): 128 µg/mL | Antibiotic MIC ([2]; +¼ MIC (1.6 μM) C12K(KNC12K)2NH2): 32 µg/mL | Antibiotic MIC ([2]; +½ MIC (3.12 μM) C12K(KNC12K)2NH2): 8 µg/mL | Antibiotic MIC ([2]; +⅓ MIC (2.1 μM) C12K(KNC12K)2NH2): 16 µg/mL | Antibiotic MIC [3]: <0.03 µg/mL | Antibiotic MIC, None ([4]; antibiotic alone (Table 15)): <0.03 µg/mL | Antibiotic MIC ([4]; no polymer (None), Table 14): <0.03 µg/mL | Antibiotic MIC ([5]; +¼ MIC (1.6 μM) C12(5-ene)KKNC12KNH2): 16 µg/mL | Antibiotic MIC ([5]; +¼ MIC (1.6 μM) C12KKNC12KNH2): 32 µg/mL | Antibiotic MIC [5, 8]: 16 µg/mL | Antibiotic MIC ([5]; +½ MIC (3.12 μM) C12KKNC12KNH2): 32 µg/mL | Antibiotic MIC ([5]; +⅓ MIC (2.1 μM) C12(5-ene)KKNC12KNH2): 16 µg/mL | Antibiotic MIC ([5]; +⅓ MIC (2.1 μM) C12KKNC12KNH2): 32 µg/mL | Antibiotic MIC ([5]; no polymer (None), Table 8): 16 µg/mL | Antibiotic MIC ([5]; no polymer (None), Table 11): 32 µg/mL | Antibiotic MIC [6]: 32 µg/mL | Antibiotic MIC ([7]; +¼ MIC (1.6 μM) C14(9-ene)KKNC12KNH2): 0.25 to 0.5 µg/mL | Antibiotic MIC [7, 8]: 0.03 µg/mL | Antibiotic MIC ([7]; +½ MIC (3.12 μM) C14(9-ene)KKNC12KNH2): 0.25 µg/mL | Antibiotic MIC ([7]; +⅓ MIC (2.1 μM) C14(9-ene)KKNC12KNH2): 0.25 to 0.5 µg/mL | Antibiotic MIC ([7]; no polymer (None), Table 8): 0.5 µg/mL | Antibiotic MIC ([7]; no polymer (None), Table 9): 0.5 µg/mL | Antibiotic MIC ([7]; no polymer (None), Table 10): 0.25 µg/mL | Antibiotic MIC ([7]; no polymer (None), Table 11): 0.5 µg/mL | Antibiotic MIC ([7]; no polymer (None), Table 12): 0.5 µg/mL
